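Interpolation was linear, between the two tested concentrations surrounding the appropriate level; five concentrations were tested over 48 hours in 96-well plates. GI50: concentration for 50% inhibition of growth.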 Calls of active or inactive are those of the source. Rule as the data show it: active = GI50 up to about 1.1 µM and inactive = higher.
Columns and labels:
Experiment in all cases: NCI anticancer screen, dose series, 48 h
[1] = system: MCF7
[2] = system: MDA-MB-435
[3] = system: 786-0
[4] = system: Hs-578T
[5] = system: IGROV-1
[6] = system: HOP-62
[7] = system: K562
[8] = system: UACC-62
[9] = system: EKVX
[10] = system: MDA-N
[11] = system: HOP-92
[12] = system: SF-268
[13] = system: LOX IMVI
[14] = system: NCI-H226
[15] = system: KM12
[16] = system: T47D
[17] = system: NCI-H23
[18] = system: A549
[19] = system: SK-MEL-28
[20] = system: RXF 393

CCOC(=O)/C=C(/C(=O)OCC)n1ccc(=O)n(Cc2cn(COCCOC(C)=O)nn2)c1=O
GI50 [1]: 15 µM (inactive) | GI50 [2]: 17.9 µM (inactive) | GI50 [3]: 21.7 µM (inactive) | GI50 [4]: 26.4 µM (inactive) | GI50 [5]: 18 µM (inactive) | GI50 [6]: > 100 µM (inactive) | GI50 [7]: 19.1 µM (inactive) | GI50 [8]: 18.3 µM (inactive) | GI50 [9]: 16.9 µM (inactive) | GI50 [10]: 50 µM (inactive) | GI50 [11]: 1.53 µM (inactive) | GI50 [12]: 18.2 µM (inactive) | GI50 [13]: 20.9 µM (inactive) | GI50 [14]: 33.7 µM (inactive) | GI50 [15]: 15.5 µM (inactive) | GI50 [16]: 32.1 µM (inactive) | GI50 [17]: 20.7 µM (inactive) | GI50 [18]: > 100 µM (inactive) | GI50 [19]: 16.3 µM (inactive) | GI50 [20]: 25.6 µM (inactive)

C[N+](C)(C)C(C1=CCCC1=O)c1ccccc1 (stereo not given)
GI50 [1]: 21.8 µM (inactive) | GI50 [2]: 26.2 µM (inactive) | GI50 [3]: 19.7 µM (inactive) | GI50 [4]: 33.4 µM (inactive) | GI50 [5]: 30.3 µM (inactive) | GI50 [6]: 24.8 µM (inactive) | GI50 [7]: 32.4 µM (inactive) | GI50 [8]: 18.3 µM (inactive) | GI50 [9]: > 100 µM (inactive) | GI50 [10]: 33.4 µM (inactive) | GI50 [11]: 26.4 µM (inactive) | GI50 [12]: 18.6 µM (inactive) | GI50 [13]: 18.7 µM (inactive) | GI50 [14]: 36.6 µM (inactive) | GI50 [15]: 19 µM (inactive) | GI50 [16]: 43.8 µM (inactive) | GI50 [17]: 45.2 µM (inactive) | GI50 [18]: > 100 µM (inactive) | GI50 [19]: 30.3 µM (inactive) | GI50 [20]: 21 µM (inactive)

CCOC(=O)C(=O)/C(=C\NC(=S)Nc1ccccc1Cl)C(=O)OCC
GI50 [1]: > 100 µM (inactive) | GI50 [2]: > 100 µM (inactive) | GI50 [3]: > 100 µM (inactive) | GI50 [4]: > 100 µM (inactive) | GI50 [5]: > 100 µM (inactive) | GI50 [6]: > 100 µM (inactive) | GI50 [7]: > 100 µM (inactive) | GI50 [8]: > 100 µM (inactive) | GI50 [9]: > 100 µM (inactive) | GI50 [10]: > 100 µM (inactive) | GI50 [11]: 3.59 µM (inactive) | GI50 [12]: > 100 µM (inactive) | GI50 [13]: > 100 µM (inactive) | GI50 [14]: > 100 µM (inactive) | GI50 [15]: > 100 µM (inactive) | GI50 [16]: > 100 µM (inactive) | GI50 [17]: > 100 µM (inactive) | GI50 [18]: > 100 µM (inactive) | GI50 [19]: > 100 µM (inactive) | GI50 [20]: > 100 µM (inactive)

N#Cc1ccccc1-c1nc2c3c(c(N)ccc3n1)C(=O)c1ccccc1-2
GI50 [1]: 17.6 µM (inactive) | GI50 [2]: 76.2 µM (inactive) | GI50 [3]: 33 µM (inactive) | GI50 [4]: 33.2 µM (inactive) | GI50 [5]: 8.38 µM (inactive) | GI50 [6]: 18.1 µM (inactive) | GI50 [7]: 43.5 µM (inactive) | GI50 [8]: 64.6 µM (inactive) | GI50 [9]: 30.3 µM (inactive) | GI50 [10]: > 100 µM (inactive) | GI50 [11]: > 100 µM (inactive) | GI50 [12]: 51.5 µM (inactive) | GI50 [13]: 27.9 µM (inactive) | GI50 [14]: 35.2 µM (inactive) | GI50 [15]: 11.5 µM (inactive) | GI50 [16]: 6.7 µM (inactive) | GI50 [17]: 88.7 µM (inactive) | GI50 [18]: 71.6 µM (inactive) | GI50 [19]: 24.8 µM (inactive) | GI50 [20]: 18 µM (inactive)

O=C1/C(=C/c2ccc(O)cc2)Oc2ccccc21
GI50 [1]: > 100 µM (inactive) | GI50 [2]: 83.9 µM (inactive) | GI50 [3]: > 100 µM (inactive) | GI50 [4]: > 100 µM (inactive) | GI50 [5]: > 100 µM (inactive) | GI50 [6]: > 100 µM (inactive) | GI50 [7]: 40.9 µM (inactive) | GI50 [8]: > 100 µM (inactive) | GI50 [9]: > 100 µM (inactive) | GI50 [10]: > 100 µM (inactive) | GI50 [11]: > 100 µM (inactive) | GI50 [12]: > 100 µM (inactive) | GI50 [13]: > 100 µM (inactive) | GI50 [14]: > 100 µM (inactive) | GI50 [15]: 90.6 µM (inactive) | GI50 [16]: > 100 µM (inactive) | GI50 [17]: 62.7 µM (inactive) | GI50 [18]: > 100 µM (inactive) | GI50 [19]: > 100 µM (inactive) | GI50 [20]: > 100 µM (inactive)

CCN(CC)c1ccc2cc(C(=O)Nc3ccc(C)cc3)c(=N)oc2c1
GI50 [1]: > 100 µM (inactive) | GI50 [2]: > 100 µM (inactive) | GI50 [3]: > 100 µM (inactive) | GI50 [4]: > 100 µM (inactive) | GI50 [5]: > 100 µM (inactive) | GI50 [6]: > 100 µM (inactive) | GI50 [7]: > 100 µM (inactive) | GI50 [8]: > 100 µM (inactive) | GI50 [9]: > 100 µM (inactive) | GI50 [10]: > 100 µM (inactive) | GI50 [11]: > 100 µM (inactive) | GI50 [12]: > 100 µM (inactive) | GI50 [13]: > 100 µM (inactive) | GI50 [14]: > 100 µM (inactive) | GI50 [15]: > 100 µM (inactive) | GI50 [16]: > 100 µM (inactive) | GI50 [17]: > 100 µM (inactive) | GI50 [18]: > 100 µM (inactive) | GI50 [19]: > 100 µM (inactive) | GI50 [20]: > 100 µM (inactive)

CCCCCCCCCCCC[C@@H](O)[C@H]1CC[C@H]([C@H]2CC[C@H]([C@H](O)CC[C@H](O)CCCCCCCC3=C[C@H](C)OC3=O)O2)O1
GI50 [1]: 1.15 µM (inactive) | GI50 [2]: 1.77 µM (inactive) | GI50 [3]: 2.4 µM (inactive) | GI50 [4]: 2.18 µM (inactive) | GI50 [5]: 1.65 µM (inactive) | GI50 [6]: 1.57 µM (inactive) | GI50 [7]: 1.05 µM (active) | GI50 [8]: 1.02 µM (active) | GI50 [9]: 1.1 µM (active) | GI50 [10]: 1.9 µM (inactive) | GI50 [11]: 2.16 µM (inactive) | GI50 [12]: 1.55 µM (inactive) | GI50 [13]: 1.17 µM (inactive) | GI50 [14]: 1.67 µM (inactive) | GI50 [15]: 1.44 µM (inactive) | GI50 [16]: 3.4 µM (inactive) | GI50 [17]: 0.0201 µM (active) | GI50 [18]: 1.35 µM (inactive) | GI50 [19]: 1.63 µM (inactive) | GI50 [20]: 2.12 µM (inactive)
